This is an account of results in US8772343B2, “Chemical compounds” (Pfizer Limited, priority 2010, dated 2014).

The structures appear in SMILES notation. pIC50: −log10 of the molar value. Structures can show the parent of a compound that is named as a salt.

T1 sequence (Q15858 whole entry): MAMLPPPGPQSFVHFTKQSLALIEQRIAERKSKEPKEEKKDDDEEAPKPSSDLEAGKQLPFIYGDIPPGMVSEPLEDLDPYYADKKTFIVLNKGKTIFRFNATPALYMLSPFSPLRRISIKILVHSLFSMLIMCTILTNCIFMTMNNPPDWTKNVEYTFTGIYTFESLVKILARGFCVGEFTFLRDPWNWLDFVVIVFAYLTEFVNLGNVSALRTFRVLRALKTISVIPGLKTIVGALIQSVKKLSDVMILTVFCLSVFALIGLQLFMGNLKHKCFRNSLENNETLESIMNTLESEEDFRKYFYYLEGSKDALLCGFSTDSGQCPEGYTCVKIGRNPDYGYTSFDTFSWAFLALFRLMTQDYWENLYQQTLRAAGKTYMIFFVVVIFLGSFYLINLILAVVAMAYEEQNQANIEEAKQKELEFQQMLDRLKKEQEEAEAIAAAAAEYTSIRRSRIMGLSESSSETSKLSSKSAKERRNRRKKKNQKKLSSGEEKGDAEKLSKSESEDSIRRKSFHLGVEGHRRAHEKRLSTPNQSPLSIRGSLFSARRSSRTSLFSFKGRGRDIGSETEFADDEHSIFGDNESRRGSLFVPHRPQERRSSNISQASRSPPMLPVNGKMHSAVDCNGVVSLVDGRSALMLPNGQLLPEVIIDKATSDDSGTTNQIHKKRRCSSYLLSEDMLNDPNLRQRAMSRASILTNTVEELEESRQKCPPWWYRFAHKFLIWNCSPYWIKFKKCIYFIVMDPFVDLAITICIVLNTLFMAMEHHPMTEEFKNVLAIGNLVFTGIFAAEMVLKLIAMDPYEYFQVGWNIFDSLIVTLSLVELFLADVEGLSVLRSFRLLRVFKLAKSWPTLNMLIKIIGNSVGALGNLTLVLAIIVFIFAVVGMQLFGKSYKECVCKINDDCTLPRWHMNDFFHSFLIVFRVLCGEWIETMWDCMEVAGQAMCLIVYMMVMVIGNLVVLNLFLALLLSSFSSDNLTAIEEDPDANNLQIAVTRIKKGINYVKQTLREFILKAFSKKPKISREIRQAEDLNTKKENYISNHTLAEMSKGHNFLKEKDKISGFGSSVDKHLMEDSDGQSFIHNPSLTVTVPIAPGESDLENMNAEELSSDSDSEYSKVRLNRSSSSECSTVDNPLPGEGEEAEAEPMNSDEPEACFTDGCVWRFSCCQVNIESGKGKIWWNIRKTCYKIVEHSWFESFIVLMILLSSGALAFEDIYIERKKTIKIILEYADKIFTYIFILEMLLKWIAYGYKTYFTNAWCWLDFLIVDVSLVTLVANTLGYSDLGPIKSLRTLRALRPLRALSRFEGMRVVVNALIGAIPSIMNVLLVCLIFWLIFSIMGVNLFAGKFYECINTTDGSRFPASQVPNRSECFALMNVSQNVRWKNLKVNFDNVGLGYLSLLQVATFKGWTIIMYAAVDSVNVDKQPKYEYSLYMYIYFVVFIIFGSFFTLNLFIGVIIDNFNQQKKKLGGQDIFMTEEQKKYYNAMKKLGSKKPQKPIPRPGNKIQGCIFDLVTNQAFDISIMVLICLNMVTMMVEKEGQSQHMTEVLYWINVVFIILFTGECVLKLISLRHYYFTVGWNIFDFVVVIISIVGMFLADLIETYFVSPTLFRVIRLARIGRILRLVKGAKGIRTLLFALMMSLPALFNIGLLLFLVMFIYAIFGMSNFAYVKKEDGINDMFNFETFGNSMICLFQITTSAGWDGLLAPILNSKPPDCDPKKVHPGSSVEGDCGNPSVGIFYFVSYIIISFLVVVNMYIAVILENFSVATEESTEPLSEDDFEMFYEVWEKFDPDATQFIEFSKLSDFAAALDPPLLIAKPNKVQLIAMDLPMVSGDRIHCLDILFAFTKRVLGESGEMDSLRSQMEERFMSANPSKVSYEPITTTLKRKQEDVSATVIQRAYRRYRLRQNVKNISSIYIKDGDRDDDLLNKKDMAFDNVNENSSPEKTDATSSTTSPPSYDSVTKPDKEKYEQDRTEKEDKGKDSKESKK

This assay has as its target T1, Nav1.7 (or SCN9A) channel (Homo sapiens, UniProt Q15858).
T1 construct: expressed in transfected cells
Nature of the assay: Nav1.7 PatchXpress automated whole-cell electrophysiology in HEK cells expressing hSCN9A. The settings on record: estimated IC50 from single point data, PatchXpress assay, held at V1/2 of inactivation, read-out: Nav1.7 EIC50. In kind it is cell-based. On the procedure: The ability of the compounds of formula (I) to block the Nav1.7 (or SCN9A) channel were measured using the assay described below.
Human Embryonic Kidney (HEK) cells were transfected with an hSCN9A construct using lipofectamine reagent (Invitrogen), using standard techniques. Cells stably expressing the hSCN9A constructs were identified by their resistance to G-418 (400 μg/ml). Clones were screened for expression using the whole-cell voltage-clamp technique.
HEK cells stably transfected with hSCN9A were maintained in DMEM medium supplemented with 10% heat-inactivated fetal bovine serum and 400 μg/ml G-418 in an incubator at 37° C. with a humidified atmosphere of 10% CO2. For HTS, cells were harvested from flasks by trypsinization and replated in an appropriate multi-well plate (typically 96 or 384 wells/plate) such that confluence would be achieved within 24 hours of plating. For electrophysiological studies, cells were removed from the culture flask by brief trypsinization and re-plated at low density onto glass cover slips. Cells were typically used for electrophysiological experiments within 24 to 72 hours after plating.
Cover slips containing HEK cells expressing hSCN9A were placed in a bath on the stage of an inverted microscope and perfused (approximately 1 ml/minutes) with extracellular solution of the following composition: 138 mM NaCl, 2 mM CaCl2, 5.4 mM KCl, 1 mM MgCl2, 10 mM glucose, and 10 mM HEPES, pH 7.4, with NaOH. […] The osmolarity of the extracellular and intracellular solutions was 300 mOsm/kg and 295 mOsm/kg, respectively. All recordings were made at room temperature (22-24° C.) using AXOPATCH 200B amplifiers and PCLAMP software (Axon Instruments, Burlingame, Calif.).
hSCN9A currents in HEK cells were measured using the whole-cell configuration of the patch-clamp technique (Hamill et al., 1981). Uncompensated series resistance was typically 2 to 5 mega ohms and >85% series resistance compensation was routinely achieved. As a result, voltage errors were negligible and no correction was applied. Current records were acquired at 20 to 50 KHz and filtered at 5 to 10 KHz.
HEK cells stably transfected with hSCN9A were viewed under Hoffman contrast optics and placed in front of an array of flow pipes emitting either control or compound-containing extracellular solutions. All compounds were dissolved in dimethyl sulfoxide to make 10 mM stock solutions, which were then diluted into extracellular solution to attain the final concentrations desired. […] The voltage-dependence of inactivation was determined by applying a series of depolarizing prepulses (8 sec long in 10 mV increments) from a negative holding potential. The voltage was then immediately stepped to 0 mV to assess the magnitude of the sodium current. Currents elicited at 0 mV were plotted as a function of prepulse potential to allow estimation of the voltage at which 50% of the channels were inactivated (midpoint of inactivation or V1/2). Compounds were tested for their ability to inhibit hSCN9A sodium channels by activating the channel with a 20 msec voltage step to 0 mV following an 8 second conditioning prepulse to the empirically determined V1/2. Compound effect (% inhibition) was determined by difference in current amplitude before and after application of test compounds. For ease of comparison, “estimated IC-50” (EIC50) values were calculated from single point electrophysiology data by the following equation, (tested concentration, uM)×(100-% inhibition/% inhibition). Inhibition values<20% and >80% were excluded from the calculation.
Electrophysiological assays were conducted with PatchXpress 7000 hardware and associated software (Molecular Devices Corp). All assay buffers and solutions were identical to those used in conventional whole-cell voltage clamp experiments described above. hSCN9A cells were grown as above to 50%-80% confluency and harvested by trypsinization. […]
On to `CCc1cccc(Oc2ccc(C(=O)NS(C)(=O)=O)cc2-c2cccnc2OC)c1` [Example 89, 4-(3-ethylphenoxy)-3-(2-methoxypyridin-3-yl)-N-(methylsulfonyl)benzamide], for which the pIC50 is 6.80.
Then `CCc1ccccc1Oc1ccc(C(=O)NS(C)(=O)=O)cc1-c1cccnc1OC` [Example 80, 4-(2-ethylphenoxy)-3-(2-methoxypyridin-3-yl)-N-(methylsulfonyl)benzamide], with under 6.00; and `Cc1cc(-c2cc(C(=O)NS(C)(=O)=O)ccc2Oc2ccc(Cl)cc2)ccn1` [Example 34, 4-(4-chlorophenoxy)-3-(2-methylpyridin-4-yl)-N-(methylsulfonyl)benzamide], with 5.07; and `CCOc1cccc(Oc2ccc(C(=O)NS(C)(=O)=O)cc2-c2cccnc2OC)c1` [Example 84, 4-(3-ethoxyphenoxy)-3-(2-methoxypyridin-3-yl)-N-(methylsulfonyl)benzamide], with 6.31.
Then `CCc1cc(Oc2ccc(C(=O)NS(C)(=O)=O)cc2-c2ccn[nH]2)ccc1Cl` [Example 95, 4-(4-chloro-3-ethylphenoxy)-N-(methylsulfonyl)-3-(1H-pyrazol-5-yl)benzamide hydrochloride salt], with 7.00; and `COc1ncccc1-c1cc(C(=O)NS(C)(=O)=O)ccc1Oc1ccc(F)cc1` [Example 91, 4-(4-fluorophenoxy)-3-(2-methoxypyridin-3-yl)-N-(methylsulfonyl)benzamide], with 6.17; and `COc1ncccc1-c1cc(C(=O)NS(C)(=O)=O)ccc1Oc1cccc(F)c1` [Example 59, 4-(3-fluorophenoxy)-3-(2-methoxypyridin-3-yl)-N-(methylsulfonyl)benzamide], with 6.43.
With `COc1ncccc1-c1cc(C(=O)NS(C)(=O)=O)ccc1Oc1ccccc1F` [Example 51, 4-(2-fluorophenoxy)-3-(2-methoxypyridin-3-yl)-N-(methylsulfonyl)benzamide] the figure was 5.77; with `COc1ncccc1-c1cc(C(=O)NS(C)(=O)=O)ccc1Oc1ccc(F)cc1F` [Example 86, 4-(2,4-difluorophenoxy)-3-(2-methoxypyridin-3-yl)-N-(methylsulfonyl)benzamide], 5.96.
For `COc1ccc(-c2cc(C(=O)NS(C)(=O)=O)ccc2Oc2ccc(Cl)cc2)cc1` [Example 50, 6-(4-chlorophenoxy)-4′-methoxy-N-(methylsulfonyl)-biphenyl-3-carboxamide], the pIC50 is 6.14.
Then `COc1ccc(Oc2ccc(C(=O)NS(C)(=O)=O)cc2-c2cccnc2OC)c(F)c1` [Example 79, 4-(2-fluoro-4-methoxyphenoxy)-3-(2-methoxypyridin-3-yl)-N-(methylsulfonyl)benzamide], with 5.62; and `COc1ccc(Oc2ccc(C(=O)NS(C)(=O)=O)cc2-c2cccnc2OC)cc1` [Example 65, 4-(4-methoxyphenoxy)-3-(2-methoxypyridin-3-yl)-N-(methylsulfonyl)benzamide], with 6.19.
`CS(=O)(=O)NC(=O)c1ccc(Oc2ccc(Cl)cc2)c(-c2ccccc2Cl)c1` [Example 31, 2′-chloro-6-(4-chlorophenoxy)-N-(methylsulfonyl)-biphenyl-3-carboxamide]: the pIC50 is 6.57.
Then `COc1ncc(-c2cc(C(=O)NS(C)(=O)=O)ccc2Oc2ccc(Cl)cc2)cc1F` [Example 36, 4-(4-chlorophenoxy)-3-(5-fluoro-6-methoxypyridin-3-yl)-N-(methylsulfonyl)benzamide], with 5.41; and `COc1ccc(-c2cc(C(=O)NS(C)(=O)=O)ccc2Oc2ccc(Cl)cc2)c(C)n1` [Example 42, 4-(4-chlorophenoxy)-3-(6-methoxy-2-methylpyridin-3-yl)-N-(methylsulfonyl)benzamide], with 5.12.
Then `COc1ncccc1-c1cc(C(=O)NS(C)(=O)=O)ccc1Oc1ccc(C(C)C)cc1` [Example 92, 4-(4-isopropylphenoxy)-3-(2-methoxypyridin-3-yl)-N-(methylsulfonyl)benzamide], with 7.42; and `COc1ncccc1-c1cc(C(=O)NS(C)(=O)=O)ccc1Oc1ccc(OC(F)(F)F)cc1` [Example 93, 3-(2-methoxypyridin-3-yl)-N-(methylsulfonyl)-4-[4-(trifluoromethoxy)phenoxy]benzamide], with 7.18; and `CS(=O)(=O)NC(=O)c1ccc(Oc2ccc(Cl)cc2)c(-c2ccncc2)c1` [Example 21, 4-(4-chlorophenoxy)-N-(methylsulfonyl)-3-pyridin-4-ylbenzamide], with 5.34.
Then `CS(=O)(=O)NC(=O)c1ccc(Oc2ccc(Cl)cc2)c(-c2cnc(N)nc2)c1` [Example 49, 3-(2-aminopyrimidin-5-yl)-4-(4-chlorophenoxy)-N-(methylsulfonyl)benzamide], with under 5.52; and `COc1ncccc1-c1cc(C(=O)NS(C)(=O)=O)ccc1Oc1cccc(C#N)c1` [Example 71, 4-(3-cyanophenoxy)-3-(2-methoxypyridin-3-yl)-N-(methylsulfonyl)benzamide], with 5.60.
For the compound `CS(=O)(=O)NC(=O)c1ccc(Oc2ccc(Cl)cc2)c(-c2ccccc2C#N)c1` [Example 33, 6-(4-chlorophenoxy)-2′-cyano-N-(methylsulfonyl)-biphenyl-3-carboxamide], the pIC50 was 6.54.
With `COc1ncccc1-c1cc(C(=O)NS(C)(=O)=O)ccc1Oc1ccc(Cl)cc1` [Example 47, 4-(4-chlorophenoxy)-3-(2-methoxypyridin-3-yl)-N-(methylsulfonyl)benzamide] the figure was 7.04.
Then `COc1ncccc1-c1cc(C(=O)NS(C)(=O)=O)ccc1Oc1cnc(OC(C)C)c(Cl)c1` [Example 7, 4-[(5-Chloro-6-isopropoxypyridin-3-yl)oxy]-3-(2-methoxypyridin-3-yl)-N-(methylsulfonyl)benzamide], with 7.18; and `COc1cc(Cl)ccc1Oc1ccc(C(=O)NS(C)(=O)=O)cc1-c1cccnc1OC` [Example 1, 4-(4-chloro-2-methoxyphenoxy)-3-(2-methoxypyridin-3-yl)-N-(methylsulfonyl)benzamide diethylamine salt], with 5.57.
Consider `COc1ncccc1-c1cc(C(=O)NS(C)(=O)=O)ccc1Oc1cccc(OC(F)(F)F)c1` [Example 68, 3-(2-methoxypyridin-3-yl)-N-(methylsulfonyl)-4-[3-(trifluoromethoxy)phenoxy]benzamide], for which the pIC50 was 7.08.
With `COc1ncccc1-c1cc(C(=O)NS(C)(=O)=O)ccc1Oc1ccccc1OC(F)(F)F` [Example 58, 3-(2-methoxypyridin-3-yl)-N-(methylsulfonyl)-4-[2-(trifluoromethoxy)phenoxy]benzamide] the figure was under 6.00; with `COc1ncccc1-c1cc(C(=O)NS(C)(=O)=O)ccc1Oc1cccc(F)c1F` [Example 74, 4-(2,3-difluorophenoxy)-3-(2-methoxypyridin-3-yl)-N-(methylsulfonyl)benzamide], 5.72.
In the case of `CCc1cc(Oc2ccc(C(=O)NS(C)(=O)=O)cc2-c2cccnc2OC)ccc1Cl` [Example 60, 4-(4-chloro-3-ethylphenoxy)-3-(2-methoxypyridin-3-yl)-N-(methylsulfonyl)benzamide], the pIC50 was 7.74.
As to `CS(=O)(=O)NC(=O)c1ccc(Oc2ccc(Cl)cc2)c(-c2ccc(F)cc2)c1` [Example 9, 6-(4-Chlorophenoxy)-4′-fluoro-N-(methylsulfonyl)biphenyl-3-carboxamide], the pIC50 is 6.96.
Then `COCc1ccc(Oc2ccc(C(=O)NS(C)(=O)=O)cc2-c2cccnc2OC)cc1` [Example 62, 4-[4-(methoxymethyl)phenoxy]-3-(2-methoxypyridin-3-yl)-N-(methylsulfonyl)benzamide], with 5.92.
